Source: EPA's ToxRefDB 2

Key:
[1] = test system: rat; details: Prenatal developmental toxicity study, sprague dawley, Oral, Gavage/Intubation, dose end: 19 GD
[2] = test system: rat; details: Multigenerational reproductive toxicity study, sprague dawley, Oral, Feed, dose end: 2 generation
[3] = test system: rat; details: Subchronic oral toxicity in rodents, sprague dawley, Feed, dose end: 90 day
[4] = test system: dog; details: Chronic toxicity; beagle; Oral; Feed; dose end: 60 week; group: systemic; systemic / clinical chemistry / thyroid stimulating hormone (thyrotropin) (tsh) / thyroid stimulating hormone (=thyrotropin) (tsh) + …
[5] = test system: rat; details: Prenatal developmental toxicity study, sprague dawley, Oral, Gavage/Intubation, dose end: 19 GD; remark: listed apart in the source
[6] = test system: mouse; details: Carcinogenicity; cd1; Oral; Feed; dose end: 18 month; group: systemic; systemic / pathology microscopic / bone marrow / hematopoietic cell proliferation + systemic / pathology microscopic / liver / hematopoietic…
[7] = test system: rat; details: Combined chronic toxicity/carcinogenicity; sprague dawley; Oral; Feed; dose end: 24 month; group: systemic; systemic / hematology / erythrocyte (rbc) count differential / erythrocyte (rbc) + systemic / hematology / hematocrit (hct) / hematocrit (…
[8] = test system: rat; details: Subchronic oral toxicity in rodents, sprague dawley, Feed, dose end: 13 week, group: systemic, systemic / clinical chemistry / aspartate aminotransferase (ast/sgot) / aspartate aminotransferase (ast/sgot) + systemic / clinical …
[9] = test system: rat; details: Combined chronic toxicity/carcinogenicity, sprague dawley, Oral, Feed, dose end: 2 year, group: systemic
[10] = test system: rat; details: Multigenerational reproductive toxicity study, sprague dawley, Oral, Feed, dose end: 2 generation; remark: listed apart in the source
[11] = test system: rat; details: Combined chronic toxicity/carcinogenicity, sprague dawley, Oral, Feed, dose end: 2 year, group: systemic; remark: listed apart in the source
[12] = test system: mouse; details: Combined chronic toxicity/carcinogenicity, cd1, Oral, Feed, dose end: 18 month, group: systemic
[13] = test system: dog; details: Subchronic oral toxicity in nonrodent, beagle, Capsule, dose end: 93 day, group: systemic
[14] = test system: rat; details: Prenatal developmental toxicity study, sprague dawley, Oral, Gavage/Intubation, dose end: 15 GD
[15] = test system: rat; details: Combined chronic toxicity/carcinogenicity, fischer, Oral, Feed, dose end: 104 week, group: systemic
[16] = test system: dog; details: Chronic toxicity; beagle; Oral; Capsule; dose end: 52 week; group: systemic; systemic / in life observation / clinical signs / defecation (diarrhea) + systemic / in life observation / clinical signs / vomitting + …
[17] = test system: mouse; details: Carcinogenicity, cd1, Oral, Feed, dose end: 78 week, group: systemic
[18] = test system: rat; details: Subchronic oral toxicity in rodents, fischer, Feed, dose end: 90 day, group: systemic
[19] = group: developmental, developmental / developmental malformation / bone / bent + developmental / developmental malformation / bone / delayed ossification + …
[20] = group: maternal, systemic / in life observation / clinical signs / [other] + systemic / pathology gross / spleen / discolored + systemic / pathology gross / …
[21] = group: offspring, systemic / in life observation / body weight / offspring (pup) weight + systemic / organ weight / liver / absolute + systemic / organ weight…
[22] = group: parental, systemic / organ weight / spleen / absolute + systemic / organ weight / spleen / relative to body weight + systemic / pathology microscopic…
[23] = group: cholinesterase, cholinesterase / cholinesterase / cholinesterase / plasma cholinesterase (che)
[24] = group: systemic, systemic / hematology / erythrocyte (rbc) count differential / erythrocyte (rbc) + systemic / hematology / hemoglobin (hgb) / hemoglobin (…
[25] = group: systemic, systemic / pathology microscopic / blood / focal cellular change
[26] = group: developmental, developmental / developmental malformation / bone / short
[27] = group: maternal, systemic / in life observation / body weight / body weight gain + systemic / in life observation / body weight / body weight + systemic / in…
[28] = systemic / organ weight / liver / relative to body weight + systemic / organ weight / thyroid gland / absolute + systemic / pathology gross…
[29] = group: offspring, systemic / in life observation / body weight / offspring (pup) weight
[30] = group: parental, systemic / in life observation / body weight / body weight gain + systemic / in life observation / food consumption / food consumption + …
[31] = group: reproductive, reproductive / offspring survival early / litter size / litter size
[32] = systemic / organ weight / liver / relative to body weight
[33] = systemic / organ weight / liver / relative to body weight + systemic / clinical chemistry / cholesterol / cholesterol
[34] = systemic / in life observation / clinical signs / amyloidosis + systemic / organ weight / brain / relative to brain weight + systemic / …
[35] = systemic / organ weight / liver / relative to brain weight + systemic / organ weight / gallbladder / relative to brain weight
[36] = systemic / in life observation / clinical signs / defecation (diarrhea) + systemic / in life observation / clinical signs / vomitting + …
[37] = group: developmental, developmental / developmental malformation / bone / full supernumerary
[38] = group: maternal, systemic / in life observation / body weight / body weight gain + systemic / in life observation / water consumption / water consumption
[39] = group: maternal, systemic / in life observation / body weight / body weight gain + systemic / in life observation / water consumption / water consumption + …
[40] = systemic / clinical chemistry / creatine phosphokinase / creatine phosphokinase + systemic / organ weight / liver / absolute + systemic / …
[41] = systemic / pathology microscopic / stomach / dysplasia
[42] = systemic / in life observation / body weight / body weight gain + systemic / organ weight / brain / relative to body weight + systemic / …
[43] = systemic / organ weight / liver / relative to body weight + systemic / clinical chemistry / beta globulin / beta globulin + systemic / …

Work on `CC(C)OC(=O)Nc1cccc(Cl)c1` [Chlorpropham] yielded an LEL [1, 19] of 2000 mg/kg/day, an LOAEL [1, 19] of 2000 mg/kg/day and an NEL [1, 19] of 400 mg/kg/day. For the same molecule, the NOAEL [1, 19] was 400 mg/kg/day, the LEL [1, 20] was 400 mg/kg/day and the LOAEL [1, 20] was 400 mg/kg/day. It also gave an NEL [1, 20] of 40 mg/kg/day, an NOAEL [1, 20] of 40 mg/kg/day and an LEL [2, 21] of 150 mg/kg/day. It also gave an LOAEL [2, 21] of 150 mg/kg/day, an NEL [2, 21] of 50 mg/kg/day and an NOAEL [2, 21] of 50 mg/kg/day. It also gave an LEL [2, 22] of 150 mg/kg/day, an LOAEL [2, 22] of 150 mg/kg/day and an NEL [2, 22] of 50 mg/kg/day. The NOAEL [2, 22] was 50 mg/kg/day, the LEL [3, 23] was 1140 mg/kg/day and the LOAEL [3, 23] was greater than 1140 mg/kg/day. For the same molecule, the NEL [3, 23] was 279 mg/kg/day, the NOAEL [3, 23] was no less than 1140 mg/kg/day and the LOAEL [3, 24] was 276 mg/kg/day. The NOAEL [3, 24] was 64.8 mg/kg/day, the LEL [3, 25] was 15.9 mg/kg/day and the NEL [3, 25] was less than 15.9 mg/kg/day. The LEL [4] was 5 mg/kg/day, the LOAEL [4] was 50 mg/kg/day and the NEL [4] was less than 5 mg/kg/day. It also gave an NOAEL [4] of 5 mg/kg/day, an LEL [5, 26] of 1000 mg/kg/day and an LOAEL [5, 26] of 1000 mg/kg/day. It also gave an NEL [5, 26] of 350 mg/kg/day, an NOAEL [5, 26] of 350 mg/kg/day and an LOAEL ([5]; group: maternal, systemic / in life observation / body weight / body weight gain) of 350 mg/kg/day. It also gave an NEL [5, 27] of 100 mg/kg/day, an NOAEL [5, 27] of 100 mg/kg/day and an LEL ([5]; group: maternal, systemic / in life observation / body weight / body weight gain + systemic / in life observation / clinical signs / red or crusty deposits …) of 350 mg/kg/day. For the same molecule, the LEL [6] was 519 mg/kg/day, the LOAEL [6] was 519 mg/kg/day and the NEL [6] was 108 mg/kg/day. For the same molecule, the NOAEL [6] was 108 mg/kg/day, the LEL [7] was 100 mg/kg/day and the LOAEL [7] was 100 mg/kg/day. It also gave an NEL [7] of 30 mg/kg/day and an NOAEL [7] of 30 mg/kg/day.
For `CCC(CC)Nc1c([N+](=O)[O-])cc(C)c(C)c1[N+](=O)[O-]` [Pendimethalin], the LEL [8] was 7.6 mg/kg/day, the LOAEL [8] was 382 mg/kg/day and the NEL [8] was less than 7.6 mg/kg/day. The NOAEL [8] was 39.2 mg/kg/day, the LEL ([9]; systemic / in life observation / body weight / body weight gain + systemic / pathology gross / liver / accentuated lobular pattern) was 25 mg/kg/day and the LOAEL [9, 28] was greater than 250 mg/kg/day. The NOAEL [9, 28] was no less than 250 mg/kg/day, the NEL ([9]; systemic / pathology microscopic / thyroid gland / adenoma + systemic / clinical chemistry / albumin / albumin + systemic / clinical …) was 5 mg/kg/day and the LEL [10, 29] was 215 mg/kg/day. For the same molecule, the LOAEL [10, 29] was 215 mg/kg/day, the NEL [10, 29] was 42 mg/kg/day and the NOAEL [10, 29] was 42 mg/kg/day. For the same molecule, the LEL [10, 30] was 173 mg/kg/day, the LOAEL [10, 30] was 173 mg/kg/day and the NEL [10, 30] was 36 mg/kg/day. For the same molecule, the NOAEL [10, 30] was 36 mg/kg/day, the LEL [10, 31] was 215 mg/kg/day and the LOAEL [10, 31] was 215 mg/kg/day. It also gave an NEL [10, 31] of 42 mg/kg/day, an NOAEL [10, 31] of 42 mg/kg/day and an LOAEL [11, 32] of 51 mg/kg/day. It also gave an NOAEL [11, 32] of less than 51 mg/kg/day, an LEL [11, 33] of 51 mg/kg/day and an NEL [11, 33] of less than 51 mg/kg/day. The LOAEL [12, 34] was 622 mg/kg/day, the NOAEL [12, 34] was 62.3 mg/kg/day and the LEL [12, 35] was 12.3 mg/kg/day. It also gave an NEL [12, 35] of less than 12.3 mg/kg/day.
`CCc1nn(C)c(C(=O)NCc2ccc(C(C)(C)C)cc2)c1Cl` [Tebufenpyrad] showed an LOAEL ([13]; systemic / in life observation / clinical signs / defecation (diarrhea) + systemic / in life observation / clinical signs / vomitting) of 10 mg/kg/day, an LEL [13, 36] of 10 mg/kg/day and an NEL [13, 36] of 2 mg/kg/day. The NOAEL [13, 36] was 2 mg/kg/day, the LEL [14, 37] was 90 mg/kg/day and the LOAEL [14, 37] was 90 mg/kg/day. It also gave an NEL [14, 37] of 50 mg/kg/day, an NOAEL [14, 37] of 50 mg/kg/day and an LEL [14, 38] of 50 mg/kg/day. It also gave an LOAEL [14, 38] of 50 mg/kg/day, an NEL [14, 39] of 15 mg/kg/day and an NOAEL [14, 39] of 15 mg/kg/day. The LEL [15, 40] was 0.21 mg/kg/day, the NEL [15, 40] was less than 0.21 mg/kg/day and the NOAEL [15, 40] was 0.82 mg/kg/day. The LOAEL ([15]; systemic / organ weight / liver / absolute + systemic / organ weight / liver / relative to body weight + systemic / clinical chemistry / …) was 6.52 mg/kg/day, the LEL [16] was 6 mg/kg/day and the LOAEL [16] was 6 mg/kg/day. The NEL [16] was 1 mg/kg/day, the NOAEL [16] was 1 mg/kg/day and the LOAEL ([17]; systemic / in life observation / body weight / body weight gain) was 64.4 mg/kg/day. For the same molecule, the NOAEL ([17]; systemic / in life observation / body weight / body weight gain + systemic / in life observation / body weight / body weight + systemic / …) was 3.6 mg/kg/day, the LEL [17, 41] was 4.2 mg/kg/day and the NEL [17, 41] was less than 4.2 mg/kg/day. It also gave an LOAEL [18, 42] of 29 mg/kg/day, an NOAEL [18, 42] of 6.8 mg/kg/day and an LEL [18, 43] of 0.7 mg/kg/day. It also gave an NEL [18, 43] of less than 0.7 mg/kg/day.
